Test results published in patent US8765747B2, “Fused 2-aminothiazole compounds” (Dana-Farber Cancer Institute, Inc., priority 2009, dated 2014).

What was measured:
PDGFRA = PDGFRA (Homo sapiens (Human), UniProt P16234); assay: KINOMEscan competition binding assay
Description: (§1) KINOMEscan™ (Ambit Biosciences, San Diego, Calif.), a high-throughput method for screening small molecular agents against a large panel of human kinases, was utilized for compound 2.
(§2) Kinases where significant binding affinity was detected at 10 μM were retested in dose-response format to determine a dissociation constant. The size of the red circle is proportion to Kd. […] The compound binds in the “DFG-out” conformation as evident by the position of F405. Ample space is available adjacent to the gatekeeper residue T338 providing a rationale for the tolerance for a larger amino acid at this position.

PDGFRB = PDGFRB (Homo sapiens (Human), UniProt P09619); assay: KINOMEscan competition binding assay
Description: as §1, §2

RET = RET (Homo sapiens (Human), UniProt P07949); assay: KINOMEscan competition binding assay
Description: as §1, §2

p38-gamma = p38-gamma (Homo sapiens (Human), UniProt P53778); assay: KINOMEscan competition binding assay
Description: as §1, §2

HIPK1 = HIPK1 (Homo sapiens (Human), UniProt Q86Z02); assay: KINOMEscan competition binding assay
Description: as §1, §2

CDK5 = CDK5 (Homo sapiens (Human), UniProt Q00535); assay: KINOMEscan competition binding assay
CDK5, sequence (Q00535 whole entry): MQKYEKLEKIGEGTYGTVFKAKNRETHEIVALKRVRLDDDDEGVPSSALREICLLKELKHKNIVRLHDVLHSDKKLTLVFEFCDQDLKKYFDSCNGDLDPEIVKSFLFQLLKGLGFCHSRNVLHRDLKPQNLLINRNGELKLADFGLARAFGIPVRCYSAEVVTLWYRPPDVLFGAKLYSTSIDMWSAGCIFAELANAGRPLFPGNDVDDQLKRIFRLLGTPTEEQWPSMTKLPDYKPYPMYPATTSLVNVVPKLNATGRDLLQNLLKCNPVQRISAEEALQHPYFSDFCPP
Description: as §1, §2

DDR1 = DDR1 (Homo sapiens (Human), UniProt Q08345); assay: KINOMEscan competition binding assay
Description: as §1, §2

CDK7 = CDK7 (Homo sapiens (Human), UniProt P50613); assay: KINOMEscan competition binding assay
CDK7, sequence (P50613 whole entry): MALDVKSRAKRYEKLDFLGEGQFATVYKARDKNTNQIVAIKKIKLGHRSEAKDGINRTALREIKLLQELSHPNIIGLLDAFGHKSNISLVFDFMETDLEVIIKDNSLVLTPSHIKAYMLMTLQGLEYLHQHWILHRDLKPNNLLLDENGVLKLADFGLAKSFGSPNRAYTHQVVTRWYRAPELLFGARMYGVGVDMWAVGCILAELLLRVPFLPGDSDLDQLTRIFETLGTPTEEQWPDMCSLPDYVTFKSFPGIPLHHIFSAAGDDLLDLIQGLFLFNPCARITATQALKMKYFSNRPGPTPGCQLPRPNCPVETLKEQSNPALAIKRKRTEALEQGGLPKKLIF
Description: as §1, §2

LOK = LOK (Homo sapiens (Human), UniProt O94804); assay: KINOMEscan competition binding assay
Description: as §1, §2

FLT4 = FLT4 (Homo sapiens (Human), UniProt P35916); assay: KINOMEscan competition binding assay
FLT4, sequence (P35916 25-1363): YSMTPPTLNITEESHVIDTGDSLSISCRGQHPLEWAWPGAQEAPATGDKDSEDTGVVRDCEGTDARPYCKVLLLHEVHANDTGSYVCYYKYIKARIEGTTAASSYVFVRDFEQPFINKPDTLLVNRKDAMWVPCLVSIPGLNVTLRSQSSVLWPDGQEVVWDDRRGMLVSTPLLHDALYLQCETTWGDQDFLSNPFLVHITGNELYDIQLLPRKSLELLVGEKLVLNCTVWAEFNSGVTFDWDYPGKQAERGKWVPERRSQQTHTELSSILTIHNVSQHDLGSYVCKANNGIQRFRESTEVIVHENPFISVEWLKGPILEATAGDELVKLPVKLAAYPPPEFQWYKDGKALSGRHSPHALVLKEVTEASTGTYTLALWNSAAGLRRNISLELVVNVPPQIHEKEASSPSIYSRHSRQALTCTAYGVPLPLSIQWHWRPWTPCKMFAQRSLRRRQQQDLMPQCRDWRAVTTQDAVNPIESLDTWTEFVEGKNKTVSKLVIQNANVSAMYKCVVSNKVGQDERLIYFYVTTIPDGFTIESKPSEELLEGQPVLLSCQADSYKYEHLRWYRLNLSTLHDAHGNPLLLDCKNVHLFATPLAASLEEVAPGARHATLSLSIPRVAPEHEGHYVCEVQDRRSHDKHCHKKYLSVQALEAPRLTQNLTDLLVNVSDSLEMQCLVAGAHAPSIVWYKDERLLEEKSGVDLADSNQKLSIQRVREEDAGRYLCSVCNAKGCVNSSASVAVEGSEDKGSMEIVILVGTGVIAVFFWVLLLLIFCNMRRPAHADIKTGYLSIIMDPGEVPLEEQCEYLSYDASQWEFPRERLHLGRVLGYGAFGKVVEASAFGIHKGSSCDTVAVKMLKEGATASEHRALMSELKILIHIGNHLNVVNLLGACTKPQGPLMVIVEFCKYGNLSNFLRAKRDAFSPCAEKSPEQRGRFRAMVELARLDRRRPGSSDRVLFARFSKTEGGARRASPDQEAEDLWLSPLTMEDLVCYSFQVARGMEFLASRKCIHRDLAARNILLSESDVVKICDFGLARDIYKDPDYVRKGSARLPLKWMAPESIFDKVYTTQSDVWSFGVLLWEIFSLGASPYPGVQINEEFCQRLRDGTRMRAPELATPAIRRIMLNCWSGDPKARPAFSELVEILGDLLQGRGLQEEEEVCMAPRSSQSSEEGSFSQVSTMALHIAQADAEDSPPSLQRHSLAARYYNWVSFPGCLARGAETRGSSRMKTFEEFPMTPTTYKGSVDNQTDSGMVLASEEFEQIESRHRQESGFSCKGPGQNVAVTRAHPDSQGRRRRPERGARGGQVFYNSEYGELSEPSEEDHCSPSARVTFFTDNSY
Description: as §1, §2

KIT = KIT (Homo sapiens (Human), UniProt P10721); assay: KINOMEscan competition binding assay
Description: as §1, §2

ABL1(T315I) = ABL1(T315I) (Homo sapiens (Human), UniProt P00519, T315I); assay: KINOMEscan competition binding assay
Description: as §1, §2

TIE2 = TIE2 (Homo sapiens (Human), UniProt Q02763); assay: KINOMEscan competition binding assay
Description: as §1, §2

FLT3 = FLT3 (Homo sapiens (Human), UniProt P36888); assay: KINOMEscan competition binding assay
Description: as §1, §2

BRAF = BRAF (Homo sapiens (Human), UniProt P15056); assay: KINOMEscan competition binding assay
Description: as §1, §2

CDK3 = CDK3 (Homo sapiens (Human), UniProt Q00526); assay: KINOMEscan competition binding assay
CDK3, sequence (Q00526 whole entry): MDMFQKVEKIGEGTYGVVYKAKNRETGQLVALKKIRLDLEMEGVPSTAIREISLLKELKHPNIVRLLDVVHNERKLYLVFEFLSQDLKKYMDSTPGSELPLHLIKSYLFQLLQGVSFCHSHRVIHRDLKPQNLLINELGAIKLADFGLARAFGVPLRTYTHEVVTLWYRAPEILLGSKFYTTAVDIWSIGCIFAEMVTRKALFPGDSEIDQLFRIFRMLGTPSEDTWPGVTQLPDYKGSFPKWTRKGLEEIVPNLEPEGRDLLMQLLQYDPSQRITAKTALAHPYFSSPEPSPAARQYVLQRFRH
Description: as §1, §2

CDK2 = CDK2 (Homo sapiens (Human), UniProt P24941); assay: KINOMEscan competition binding assay
Description: as §1, §2

FLT1 = FLT1 (Homo sapiens (Human), UniProt P17948); assay: KINOMEscan competition binding assay
FLT1, sequence (P17948 27-1338): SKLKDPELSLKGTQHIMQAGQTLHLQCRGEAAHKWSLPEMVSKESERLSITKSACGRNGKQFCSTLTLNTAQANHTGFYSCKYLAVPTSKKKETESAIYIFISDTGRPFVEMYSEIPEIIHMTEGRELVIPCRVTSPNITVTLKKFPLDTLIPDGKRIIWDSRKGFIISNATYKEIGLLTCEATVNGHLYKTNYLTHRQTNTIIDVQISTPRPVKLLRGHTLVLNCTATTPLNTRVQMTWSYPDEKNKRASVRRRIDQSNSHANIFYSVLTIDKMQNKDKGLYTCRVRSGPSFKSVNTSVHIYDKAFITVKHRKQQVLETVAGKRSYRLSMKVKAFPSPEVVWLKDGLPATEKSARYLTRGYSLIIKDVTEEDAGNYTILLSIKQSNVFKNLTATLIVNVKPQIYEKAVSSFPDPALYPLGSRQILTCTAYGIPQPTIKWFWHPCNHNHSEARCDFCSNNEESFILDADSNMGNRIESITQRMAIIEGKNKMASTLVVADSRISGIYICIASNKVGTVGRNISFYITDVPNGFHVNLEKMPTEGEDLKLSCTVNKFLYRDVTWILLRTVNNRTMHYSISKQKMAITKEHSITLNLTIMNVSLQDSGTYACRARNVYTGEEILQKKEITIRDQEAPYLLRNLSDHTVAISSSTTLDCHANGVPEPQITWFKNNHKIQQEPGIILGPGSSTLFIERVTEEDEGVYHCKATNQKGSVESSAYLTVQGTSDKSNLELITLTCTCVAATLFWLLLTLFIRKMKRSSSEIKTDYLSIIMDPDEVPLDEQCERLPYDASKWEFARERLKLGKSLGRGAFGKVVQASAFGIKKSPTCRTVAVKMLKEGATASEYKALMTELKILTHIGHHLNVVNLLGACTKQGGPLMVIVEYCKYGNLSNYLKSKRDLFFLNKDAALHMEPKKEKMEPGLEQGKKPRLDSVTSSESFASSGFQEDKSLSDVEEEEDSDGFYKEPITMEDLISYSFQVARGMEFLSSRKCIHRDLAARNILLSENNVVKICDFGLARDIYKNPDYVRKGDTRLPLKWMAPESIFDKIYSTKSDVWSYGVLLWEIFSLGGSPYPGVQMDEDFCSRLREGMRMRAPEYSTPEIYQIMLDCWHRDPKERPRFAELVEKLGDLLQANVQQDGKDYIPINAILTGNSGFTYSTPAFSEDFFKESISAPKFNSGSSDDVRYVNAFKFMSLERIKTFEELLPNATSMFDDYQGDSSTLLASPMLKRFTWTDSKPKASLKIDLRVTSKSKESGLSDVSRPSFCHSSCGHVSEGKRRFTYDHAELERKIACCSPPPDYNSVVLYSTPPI
Description: as §1, §2

VEGFR2 = VEGFR2 (Homo sapiens (Human), UniProt P35968); assay: KINOMEscan competition binding assay
VEGFR2, sequence (P35968 20-1356): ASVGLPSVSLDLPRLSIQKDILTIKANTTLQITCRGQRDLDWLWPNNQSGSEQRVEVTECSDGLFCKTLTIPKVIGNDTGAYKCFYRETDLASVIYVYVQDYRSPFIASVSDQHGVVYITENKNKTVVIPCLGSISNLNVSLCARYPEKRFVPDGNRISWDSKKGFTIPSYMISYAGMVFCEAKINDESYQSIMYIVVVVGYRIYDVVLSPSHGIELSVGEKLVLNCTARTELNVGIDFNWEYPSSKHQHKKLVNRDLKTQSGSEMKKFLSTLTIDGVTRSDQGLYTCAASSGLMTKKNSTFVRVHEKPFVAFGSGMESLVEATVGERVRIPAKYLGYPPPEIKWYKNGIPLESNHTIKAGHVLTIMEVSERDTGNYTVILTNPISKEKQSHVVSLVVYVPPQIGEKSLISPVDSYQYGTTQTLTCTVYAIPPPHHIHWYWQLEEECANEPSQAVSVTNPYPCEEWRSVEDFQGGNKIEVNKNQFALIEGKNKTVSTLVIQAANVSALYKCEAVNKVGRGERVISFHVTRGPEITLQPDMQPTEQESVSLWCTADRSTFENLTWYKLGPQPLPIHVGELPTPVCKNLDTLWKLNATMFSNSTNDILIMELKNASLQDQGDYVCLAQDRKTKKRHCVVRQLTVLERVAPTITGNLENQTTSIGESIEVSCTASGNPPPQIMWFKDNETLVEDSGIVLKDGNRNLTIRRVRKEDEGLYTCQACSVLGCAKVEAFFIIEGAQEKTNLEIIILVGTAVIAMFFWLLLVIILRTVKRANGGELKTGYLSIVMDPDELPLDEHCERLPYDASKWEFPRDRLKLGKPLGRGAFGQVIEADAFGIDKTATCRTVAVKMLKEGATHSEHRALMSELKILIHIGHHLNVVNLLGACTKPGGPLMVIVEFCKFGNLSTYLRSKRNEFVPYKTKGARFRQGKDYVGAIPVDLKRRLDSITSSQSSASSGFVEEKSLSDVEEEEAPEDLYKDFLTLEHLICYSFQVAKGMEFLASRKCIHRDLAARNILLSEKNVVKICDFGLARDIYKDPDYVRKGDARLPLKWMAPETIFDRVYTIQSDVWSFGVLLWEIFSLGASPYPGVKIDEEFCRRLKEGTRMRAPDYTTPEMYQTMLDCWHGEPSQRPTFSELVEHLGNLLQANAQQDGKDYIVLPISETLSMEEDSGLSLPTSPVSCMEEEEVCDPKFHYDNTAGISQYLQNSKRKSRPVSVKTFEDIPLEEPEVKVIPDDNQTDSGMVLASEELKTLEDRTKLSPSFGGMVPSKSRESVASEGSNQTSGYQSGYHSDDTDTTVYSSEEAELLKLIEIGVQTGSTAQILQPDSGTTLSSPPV
Description: as §1, §2

ABL1 = ABL1 (Homo sapiens (Human), UniProt P00519); assay: KINOMEscan competition binding assay
Description: as §1, §2

Ba/F3-delWK + V654A = assay: Relative IC50 in kit-expressing cell line; assay type: cell-based, murine; conditions: Mus musculus, 2.5-3 days, read-out: Relative IC50 range
Description: (§3) All compounds were initially dissolved in DMSO to make 10 mM stock solutions, and then were serially diluted to obtain final concentrations for in vitro experiments.
(§4) All cell lines were cultured with 5% CO2 at 37° C. in RPMI (Mediatech, Inc., Herndon, Va.) with 10% fetal calf serum (FCS) and supplemented with 1% L-glutamine. Parental Ba/F3 cells were similarly cultured with 15% WEHI-conditioned medium as a source of IL-3. Transfected cell lines were cultured in media supplemented with 1 mg/ml G418.

Ba/F3-delWK = assay: Relative IC50 in kit-expressing cell line; assay type: cell-based, murine; conditions: Mus musculus, 2.5-3 days, read-out: Relative IC50 range
Description: as §3, §4

Ba/F3-insAY + T6701 = assay: Relative IC50 in kit-expressing cell line; assay type: cell-based, murine; conditions: Mus musculus, 2.5-3 days, read-out: Relative IC50 range
Description: as §3, §4

Ba/F3-insAY + V654A = assay: Relative IC50 in kit-expressing cell line; assay type: cell-based, murine; conditions: Mus musculus, 2.5-3 days, read-out: Relative IC50 range
Description: as §3, §4

Ba/F3-delWK + T6701 = assay: Relative IC50 in kit-expressing cell line; assay type: cell-based, murine; conditions: Mus musculus, 2.5-3 days, read-out: Relative IC50 range
Description: as §3, §4

Ba/F3-T6701 = assay: Relative IC50 in kit-expressing cell line; assay type: cell-based, murine; conditions: Mus musculus, 2.5-3 days, read-out: Relative IC50 range
Description: as §3, §4

Ba/F3-V6559D = assay: Relative IC50 in kit-expressing cell line; assay type: cell-based, murine; conditions: Mus musculus, 2.5-3 days, read-out: Relative IC50 range
Description: as §3, §4

Ba/F3-delWK + Y823D = assay: Relative IC50 in kit-expressing cell line; assay type: cell-based, murine; conditions: Mus musculus, 2.5-3 days, read-out: Relative IC50 range
Description: as §3, §4

Ba/F3-insAY = assay: Relative IC50 in kit-expressing cell line; assay type: cell-based, murine; conditions: Mus musculus, 2.5-3 days, read-out: Relative IC50 range
Description: as §3, §4

Ba/F3-PDGFRα-T674I = assay: Apoptosis assay; assay type: cell-based, murine; set-up: unit not given here; conditions: approximately 3 days of treatment
Description: as §4
(§5) Cell cycle analysis was performed using approximately 500,000 cells, which were centrifuged at 1500 rpm for 5 min, washed in PBS, and the pellet re-suspended in 500 μl of propidium iodide solution (50 μg/ml propidium iodide, 0.1% NP-40, 0.1% sodium citrate). The mixture was stored in the dark at 4° C. for a minimum of 15 min, and then analyzed by flow cytometry. Apoptosis of drug-treated cells was measured using the Annexin-V-Fluos Staining Kit (Boehringer Mannheim, Indianapolis).
(§6) Cells cultured in the presence or absence of drug were washed 1× with phosphate-buffered saline (PBS) and centrifuged for 5 min at 1500 rpm. Washed cell pellets were re-suspended in 100 μl of 20% Annexin-V-fluorescein labeling reagent and 20% propidium iodide (PI) in HEPES buffer. Cells were incubated for 15 min at room temperature, followed by dilution with 0.8 ml of HEPES buffer. Samples were then analyzed by flow cytometry. As controls, cells were incubated for 15 min with PI alone, Annexin-V-fluorescein labeling reagent alone, or HEPES buffer, and then diluted with HEPES buffer and analyzed by flow cytometry.

Ba/F3-PDGFRα-T674M = assay: Apoptosis assay; assay type: cell-based, murine; set-up: unit not given here; conditions: approximately 3 days of treatment
Description: as §4, §5, §6

Ba/F3-kit-T6701 = assay: Apoptosis assay; assay type: cell-based, murine; set-up: unit not given here; conditions: approximately 3 days of treatment
Description: as §4, §5, §6

32D-BCR-Abl = assay: Apoptosis assay; assay type: cell-based, murine; set-up: unit not given here; conditions: approximately 3 days of treatment
Source text: Ba/F3.p210 cells were obtained by transfecting the IL-3-dependent marine hematopoietic Ba/F3 cell line with a pGD vector containing p210BCR-ABL (B2A2) cDNA (Daley and Baltimore, 1988; Sattler et al., 1996; Okuda et al., 1996). Murine hematopoietic 32D cells were transduced with retrovirus to express p210 Bcr-ABL (32D.p210 cells) (Matulonis et al., 1993); the 32D-T315I cell line was transfected by electroporation with the imatinib resistant BCR-ABL construct (pCI-neo Mammalian Expression Vector; Promega (#E1841) harboring the point mutation T315I (Weisberg et al., 2005). Ba/F3 cells were stably transfected by electroporation with imatinib-resistant BCR-ABL constructs (pCI-neo Mammalian Expression Vector; Promega (#E1841) harboring the point mutations T315I, F317L, F486S, and M351T; transfectants were selected for neomycin resistance and IL-3-independent growth (Weisberg et al., 2005). Ba/F3 cells were stably transfected by electroporation with BCR-ABL point mutants identified in a random mutagenesis screen for BCR-ABL point mutants conferring resistance to nilotinib: Q252H, E292K, Y253C, Y253H, E255K, and V289L (Ray et al., 2007). Ba/F3 cells were made to express Tel-PDGFRβ as described by Golub et al., 1994, and Carroll et al., 1996. Constructs of D842V-PDGFRα and V561D-PDGFRα cDNA cloned into pcDNA3.1 were stably transfected into Ba/F3 cells by electroporation, and cells were selected for neomycin resistance and IL3-independent growth as described by Weisberg et al., 2006.
as §4, §5, §6

Kd (PDGFRA): 7.7 nM | Kd (PDGFRB): 1.8 nM | Kd (RET): 5.6 nM | Kd (p38-gamma): 100 nM | Kd (HIPK1): 34 nM | Kd (CDK5): 150 nM | Kd (DDR1): 3.4 nM | Kd (CDK7): 13 nM | Kd (LOK): 9.5 nM | Kd (FLT4): 31 nM | Kd (KIT): 2.9 nM | Kd (ABL1(T315I)): 1.2 nM | Kd (TIE2): 57 nM | Kd (FLT3): 2.3 nM | Kd (BRAF): 36 nM | Kd (CDK3): 250 nM | Kd (CDK2): 840 nM | Kd (FLT1): 74 nM | Kd (VEGFR2): 58 nM | Kd (ABL1): 3.3 nM | IC50 (Ba/F3-delWK + V654A): 25 to 50 nM | IC50 (Ba/F3-delWK): 12.5 to 25 nM | IC50 (Ba/F3-insAY + T6701): ≥ 1000 nM | IC50 (Ba/F3-insAY + V654A): > 1000 nM | IC50 (Ba/F3-delWK + T6701): 25 to 50 nM | IC50 (Ba/F3-T6701): 250 nM | IC50 (Ba/F3-V6559D): 250 to 500 nM | IC50 (Ba/F3-delWK + Y823D): 500 to 1000 nM | IC50 (Ba/F3-insAY): > 1000 nM
SMILES: CCN1CCN(Cc2ccc(NC(=O)c3cccc(-c4ccc5nc(NC(=O)C6CC6)sc5n4)c3)cc2C(F)(F)F)CC1 [Compound 2]
Apoptotic (Ba/F3-PDGFRα-T674I; 0.01 μM): 38.1 | Necrotic (Ba/F3-PDGFRα-T674I; 0.01 μM): 0.1 | Viable (Ba/F3-PDGFRα-T674I; 0.01 μM): 61.9 | Apoptotic (Ba/F3-PDGFRα-T674I; 0.1 μM): 84.7 | Necrotic (Ba/F3-PDGFRα-T674I; 0.1 μM): 0.2 | Viable (Ba/F3-PDGFRα-T674I; 0.1 μM): 15.2 | Apoptotic (Ba/F3-PDGFRα-T674I; 1.0 μM): 94.1 | Necrotic (Ba/F3-PDGFRα-T674I; 1.0 μM): 0 | Viable (Ba/F3-PDGFRα-T674I; 1.0 μM): 5.8 | Apoptotic (Ba/F3-PDGFRα-T674M; 0.01 μM): 9 | Necrotic (Ba/F3-PDGFRα-T674M; 0.01 μM): 0 | Viable (Ba/F3-PDGFRα-T674M; 0.01 μM): 91 | Apoptotic (Ba/F3-PDGFRα-T674M; 0.1 μM): 65.2 | Necrotic (Ba/F3-PDGFRα-T674M; 0.1 μM): 0 | Viable (Ba/F3-PDGFRα-T674M; 0.1 μM): 34.7 | Apoptotic (Ba/F3-PDGFRα-T674M; 1.0 μM): 86.80 | Necrotic (Ba/F3-PDGFRα-T674M; 1.0 μM): 0.1 | Viable (Ba/F3-PDGFRα-T674M; 1.0 μM): 13.2 | Apoptotic (Ba/F3-kit-T6701; 0.01 μM): 2.3 | Necrotic (Ba/F3-kit-T6701; 0.01 μM): 0 | Viable (Ba/F3-kit-T6701; 0.01 μM): 97.7 | Apoptotic (Ba/F3-kit-T6701; 0.1 μM): 3.1 | Necrotic (Ba/F3-kit-T6701; 0.1 μM): 0 | Viable (Ba/F3-kit-T6701; 0.1 μM): 96.9 | Apoptotic (Ba/F3-kit-T6701; 1.0 μM): 8.4 | Necrotic (Ba/F3-kit-T6701; 1.0 μM): 0 | Viable (Ba/F3-kit-T6701; 1.0 μM): 91.6 | Apoptotic (32D-BCR-Abl; 0.01 μM): 5.8 | Necrotic (32D-BCR-Abl; 0.01 μM): 0.2 | Viable (32D-BCR-Abl; 0.01 μM): 94 | Apoptotic (32D-BCR-Abl; 0.1 μM): 52.3 | Necrotic (32D-BCR-Abl; 0.1 μM): 0.6 | Viable (32D-BCR-Abl; 0.1 μM): 47.1
